Consider eleven compounds from PMC11915375 (ACS Infectious Diseases, 2025).

Assay [1] relates to Leishmania major amastigotes. The assay can be described thus: Leishmania major amastigote assay. As to conditions: Leishmania major, read-out: L. maj EC50. Format: cell-based.
Assay [2] relates to T. brucei. Put plainly: T. brucei proliferation inhibition assay. The settings on record: Trypanosoma brucei, read-out: T. brucei EC50 ± S.D. Format: cell-based, Trypanosoma brucei.
Assay [3] has as its system T. cruzi CA-I/72. Put plainly: T. cruzi in vitro assay, C2C12 host cell. The assay is classed as cell-based, Trypanosoma cruzi. As to conditions: Trypanosoma cruzi, C2C12, read-out: T. cruzi EC50.
In assay [4] the test system is S. mansoni adult worms. Put plainly: S. mansoni adult worm phenotypic assay. Format: cell-based, Schistosoma mansoni. As to conditions: scale 0-4.
The test system of assay [5] is Leishmania major amastigotes. The settings on record: read-out: L. maj EC50; 12a, 12b previously reported compounds; cited from earlier work.
Assay [6] deals with T. cruzi. As to conditions: read-out: T. cruzi EC50; different host cell line (NIH3T3), assay run at NYU; cited from earlier work.
Assay [7] has as its system T. brucei. The settings on record: read-out: T. brucei EC50; assay run at NYU; cited from earlier work.
For assay [8], the system named is L. donovani. Put plainly: L. donovani in vitro assay. The assay is classed as cell-based, Leishmania donovani. As to conditions: Leishmania donovani, read-out: L. don EC50, B10R host cell line.

Molecules are shown by their SMILES. Like-named read-outs stand apart in the source and are kept apart here.

With `COc1ccc(Nc2cnnc3cc(-c4ccc(S(=O)(=O)N5CCN(C)CC5)cc4)ccc23)cc1Cl` [Compound 17b, N-(3-Chloro-4-methoxyphenyl)-7-(4-((4-methylpiperazin-1-yl)sulfonyl)phenyl)cinnolin-4-amine], the results for the EC50 in assay [1], in assay [2] and in assay [3] were greater than 1900 nM, 8300 ± 350 nM and greater than 10000 nM, respectively. For the same compound, the “Adult severity score (10 µM) 5 h” value in assay [4] came out at 4.

Consider `CN1CCN(S(=O)(=O)c2ccc(-c3ccc4nncc(Nc5ccc(OCc6cccc(F)c6)c(Cl)c5)c4c3)cc2)CC1` [Compound 12a, N-(3-Chloro-4-((3-fluorobenzyl)oxy)phenyl)-6-(4-((4-methylpiperazin-1-yl)sulfonyl)phenyl)cinnolin-4-amine], for which the EC50 was 1900 nM in assay [5], greater than 50000 nM in assay [6] and 980 nM in assay [7].

With `CN1CCN(S(=O)(=O)c2ccc(-c3ccc4c(Nc5ccc(OCc6cccc(F)c6)c(Cl)c5)cnnc4c3)cc2)CC1` [Compound 12b, N-(3-Chloro-4-((3-fluorobenzyl)oxy)phenyl)-7-(4-((4-methylpiperazin-1-yl)sulfonyl)phenyl)cinnolin-4-amine], the EC50 in assay [5] is 2000 nM; in assay [6], 3100 nM; in assay [7], 1000 nM.

Regarding `COc1ccc(Nc2cnnc3ccc(-c4ccc(S(=O)(=O)N5CCN(C)CC5)cc4)cc23)cc1` [Compound 18a, N-(4-Methoxyphenyl)-6-(4-((4-methylpiperazin-1-yl)sulfonyl)phenyl)cinnolin-4-amine], the concentration giving a half-maximal response (EC50) is greater than 20000 nM in assay [1], 3400 nM in assay [8], 390 ± 200 nM in assay [2] and 8000 nM in assay [3].

In the case of `CN1CCN(c2ccc(-c3ccc4nncc(Nc5ncc(Cl)cn5)c4c3)cc2)CC1` [Compound 22a, N-(5-Chloropyrimidin-2-yl)-6-(4-(4-methylpiperazin-1-yl)phenyl)cinnolin-4-amine], the EC50 was greater than 4600 nM in assay [1], greater than 10000 nM in assay [8], 150 ± 68 nM in assay [2] and 310 nM in assay [3].

Turning to `CN1CCN(c2ccc(-c3ccc4c(Nc5ncc(Cl)cn5)cnnc4c3)cc2)CC1` [Compound 22b, N-(5-Chloropyrimidin-2-yl)-7-(4-(4-methylpiperazin-1-yl)phenyl)cinnolin-4-amine], the EC50 in assay [1] is 4200 nM; in assay [8], greater than 10000 nM; in assay [2], 720 ± 470 nM; in assay [3], 2300 nM.

For `COc1cnc(Nc2cnnc3ccc(-c4ccc(S(=O)(=O)N5CCN(C)CC5)cc4)cc23)nc1` [Compound 21a, N-(5-Methoxypyrimidin-2-yl)-6-(4-((4-methylpiperazin-1-yl)sulfonyl)phenyl)cinnolin-4-amine], the EC50 in assay [1] was greater than 4100 nM; in assay [8], 5770 nM; in assay [2] it was 6600 ± 1700 nM; in assay [3], 1300 nM.

Consider `CN1CCCN(S(=O)(=O)c2ccc(-c3ccc4nncc(Nc5ncc(Cl)cn5)c4c3)cc2)CC1` [Compound 33a, N-(5-Chloropyrimidin-2-yl)-6-(4-((4-methyl-1,4-diazepan-1-yl)sulfonyl)phenyl)cinnolin-4-amine], for which the concentration giving a half-maximal response (EC50) was 17000 nM in assay [1], greater than 10000 nM in assay [8], 990 ± 290 nM in assay [2] and 5300 nM in assay [3].

Turning to `CN1CCCN(c2ncc(-c3ccc4nncc(Nc5ncc(Cl)cn5)c4c3)cn2)CC1` [Compound 29a, N-(5-Chloropyrimidin-2-yl)-6-(2-(4-methyl-1,4-diazepan-1-yl)pyrimidin-5-yl)cinnolin-4-amine], the half-maximal effective concentration (EC50) in assay [1] was greater than 22000 nM; in assay [8], 220 nM; in assay [2] it was 1700 ± 500 nM; in assay [3], 6700 nM.

For the compound `CN1CCN(c2ccc(-c3ccc4nncc(Nc5ccc(OC(F)(F)F)cc5)c4c3)cc2)CC1` [Compound 24a, 6-(4-(4-Methylpiperazin-1-yl)phenyl)-N-(4-(trifluoromethoxy)phenyl)cinnolin-4-amine], the EC50 in assay [1] was greater than 21000 nM; in assay [8], 520 nM; in assay [2] it was 410 ± 24 nM; in assay [3], 870 nM.

`COc1ccc(Nc2cnnc3ccc(-c4ccc(S(=O)(=O)N5CCN(C)CC5)cc4)cc23)nc1` [Compound 19a, N-(5-Methoxypyridin-2-yl)-6-(4-((4-methylpiperazin-1-yl)sulfonyl)phenyl)cinnolin-4-amine]: the EC50 in assay [1] is greater than 20000 nM; in assay [8] it was 4900 nM; in assay [2], 1900 ± 73 nM; in assay [3] it was 3800 nM.
